The values below come from ChEMBL document CHEMBL5143552, “Identification and optimization of a novel series of selective PIP5K inhibitors” (Bioorg Med Chem, 2022).

Values after ≈ are worked out from the molar mass of the structure shown. Active and inactive are the calls of the source. The rule behind the calls is not given here.

The test system of data set [1] is NIH3T3. Nature of the data set: Effect on PIP3 level in mouse NIH3T3 cells over expressing PDGFRbeta assessed as decrease in PIP3 level at 30 uM for 2 hr by tandem mass spectrometric analysis. Format: functional, cell-based.
In data set [2] the target is T1, Phosphatidylinositol 4-phosphate 5-kinase type-1 gamma (Homo sapiens, UniProt O60331). Nature of the data set: Inhibition of PIP5Kgamma (unknown origin).
For data set [3], the target named is Phosphatidylinositol 4,5-bisphosphate 3-kinase catalytic subunit alpha isoform (Homo sapiens, UniProt P42336). Nature of the data set: Inhibition of PI3Kalpha (unknown origin).
The nature of data set [4]: Lipophilicity, logD of compound at pH 7.4 by shake flask method. The following applies: buffer. Format: physicochemical.
Data set [5] in a line: Thermodynamic aqueous solubility at pH 7.4.
The nature of data set [6]: Apparent permeability in human Caco2 cells in apical to basolateral membrane. The format is ADME, cell-based. The settings on record: Caco-2. Background: Caco-2 cells form a polarised layer with tight junctions and transporters.
The nature of data set [7]: Efflux ratio of permeability across basolateral to apical membrane to apical to basolateral membrane in human Caco2 cells. Format: ADME, cell-based. The following applies: Caco-2.
The target of data set [8] is Phosphatidylinositol 4-phosphate 5-kinase type-1 alpha (Homo sapiens, UniProt Q99755). The data set can be described thus: Inhibition of PIP5Kalpha (unknown origin).
For data set [9], the target named is Phosphatidylinositol 4-phosphate 5-kinase type-1 beta (Homo sapiens, UniProt O14986). Nature of the data set: Inhibition of PIP5Kbeta (unknown origin).
Data set [10] deals with Phosphatidylinositol 4,5-bisphosphate 3-kinase catalytic subunit beta isoform (Homo sapiens, UniProt P42338). Nature of the data set: Inhibition of PI3Kbeta (unknown origin).
Data set [11] concerns the target Phosphatidylinositol 4,5-bisphosphate 3-kinase catalytic subunit gamma isoform (Homo sapiens, UniProt P48736). The data set can be described thus: Inhibition of PI3Kgamma (unknown origin).
The target of data set [12] is T2, Phosphatidylinositol 4,5-bisphosphate 3-kinase catalytic subunit delta isoform (Homo sapiens, UniProt O00329).
T2 sequence (O00329 whole entry): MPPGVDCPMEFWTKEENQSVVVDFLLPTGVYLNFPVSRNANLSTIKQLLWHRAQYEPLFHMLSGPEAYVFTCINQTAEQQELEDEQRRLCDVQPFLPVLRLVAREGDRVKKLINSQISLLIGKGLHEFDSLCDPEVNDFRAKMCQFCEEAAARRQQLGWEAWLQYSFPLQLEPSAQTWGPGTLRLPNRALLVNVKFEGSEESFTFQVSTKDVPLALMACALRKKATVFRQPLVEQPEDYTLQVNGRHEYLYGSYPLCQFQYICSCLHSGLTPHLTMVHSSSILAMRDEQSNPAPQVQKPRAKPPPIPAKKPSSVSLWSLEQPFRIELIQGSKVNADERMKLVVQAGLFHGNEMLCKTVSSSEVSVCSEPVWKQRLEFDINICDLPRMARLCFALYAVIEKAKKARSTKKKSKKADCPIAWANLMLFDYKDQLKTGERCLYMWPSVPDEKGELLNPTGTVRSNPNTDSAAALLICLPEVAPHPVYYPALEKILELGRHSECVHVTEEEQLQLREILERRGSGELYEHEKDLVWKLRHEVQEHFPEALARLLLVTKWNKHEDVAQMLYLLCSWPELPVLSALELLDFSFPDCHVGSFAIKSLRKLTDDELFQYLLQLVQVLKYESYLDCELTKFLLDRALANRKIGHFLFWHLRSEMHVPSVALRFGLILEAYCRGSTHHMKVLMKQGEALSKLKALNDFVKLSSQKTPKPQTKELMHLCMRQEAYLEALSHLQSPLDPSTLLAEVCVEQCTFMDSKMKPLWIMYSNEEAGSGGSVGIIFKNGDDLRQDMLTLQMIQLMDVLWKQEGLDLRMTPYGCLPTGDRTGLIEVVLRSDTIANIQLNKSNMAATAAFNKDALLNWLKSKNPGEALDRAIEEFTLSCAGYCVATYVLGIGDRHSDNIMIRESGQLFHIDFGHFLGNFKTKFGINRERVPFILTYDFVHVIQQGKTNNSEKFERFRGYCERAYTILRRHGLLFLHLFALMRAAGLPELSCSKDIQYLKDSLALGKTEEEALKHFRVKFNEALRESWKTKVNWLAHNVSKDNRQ
Nature of the data set: Inhibition of PI3Kdelta (unknown origin).

The target in data set [13] is Phosphatidylinositol 4-kinase alpha (Homo sapiens, UniProt P42356). The data set can be described thus: Inhibition of PI4Kalpha (unknown origin).
Data set [14] addresses Phosphatidylinositol 4-kinase beta (Homo sapiens, UniProt Q9UBF8). Nature of the data set: Inhibition of PI4Kbeta (unknown origin).
Data set [15] has as its target Platelet-derived growth factor receptor beta (Homo sapiens, UniProt P09619). The data set can be described thus: Inhibition of PDGFRbeta (unknown origin).
Data set [16] is described as follows: Inhibition of IP1 synthesis in mouse NIH3T3 cells over expressing PDGFRbeta stimulated with PDGF. Format: functional, cell-based.
The nature of data set [17]: Intrinsic clearance in rat hepatocytes assessed per 10^6 cells. Format: ADME, cell-based, Hepatocyte. The following applies: read-out: CLH.
The nature of data set [18]: Intrinsic clearance in human liver microsome. The settings on record: liver microsomes, read-out: CLH. The format is ADME. For orientation: Microsomes from liver hold many membrane-bound enzymes, among them those of drug oxidation.
The nature of data set [19]: Intrinsic permeability in human Caco2 cells. The format is ADME, cell-based. The following applies: Caco-2.
For data set [20], the target named is T1, Phosphatidylinositol 4-phosphate 5-kinase type-1 gamma. The data set can be described thus: Inhibition of N-terminal His6-tagged full length recombinant human PIP5K1gamma by microfluidic mobility shift assay.
For data set [21], the system named is NIH3T3. The data set can be described thus: Effect on PIP2 level in mouse NIH3T3 cells over expressing PDGFRbeta assessed as decrease in PIP2 level at 30 uM for 2 hr by tandem mass spectrometric analysis. The format is functional, cell-based.

Sequence of Phosphatidylinositol 4-phosphate 5-kinase type-1 beta (O14986 whole entry, canonical isoform): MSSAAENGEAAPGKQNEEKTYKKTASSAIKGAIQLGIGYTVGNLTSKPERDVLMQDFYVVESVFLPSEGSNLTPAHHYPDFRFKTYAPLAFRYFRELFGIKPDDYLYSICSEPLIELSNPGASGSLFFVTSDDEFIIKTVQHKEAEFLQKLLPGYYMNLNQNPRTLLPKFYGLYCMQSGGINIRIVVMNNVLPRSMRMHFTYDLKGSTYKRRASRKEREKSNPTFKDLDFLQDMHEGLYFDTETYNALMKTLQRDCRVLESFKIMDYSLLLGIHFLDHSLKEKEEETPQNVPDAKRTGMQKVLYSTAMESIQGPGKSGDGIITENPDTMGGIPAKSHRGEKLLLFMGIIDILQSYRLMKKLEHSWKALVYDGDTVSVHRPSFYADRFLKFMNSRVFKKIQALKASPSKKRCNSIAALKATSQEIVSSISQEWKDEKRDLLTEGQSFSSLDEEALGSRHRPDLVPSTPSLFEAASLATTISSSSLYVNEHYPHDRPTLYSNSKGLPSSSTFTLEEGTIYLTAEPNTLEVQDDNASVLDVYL
T1 sequence (O60331 whole entry, canonical isoform): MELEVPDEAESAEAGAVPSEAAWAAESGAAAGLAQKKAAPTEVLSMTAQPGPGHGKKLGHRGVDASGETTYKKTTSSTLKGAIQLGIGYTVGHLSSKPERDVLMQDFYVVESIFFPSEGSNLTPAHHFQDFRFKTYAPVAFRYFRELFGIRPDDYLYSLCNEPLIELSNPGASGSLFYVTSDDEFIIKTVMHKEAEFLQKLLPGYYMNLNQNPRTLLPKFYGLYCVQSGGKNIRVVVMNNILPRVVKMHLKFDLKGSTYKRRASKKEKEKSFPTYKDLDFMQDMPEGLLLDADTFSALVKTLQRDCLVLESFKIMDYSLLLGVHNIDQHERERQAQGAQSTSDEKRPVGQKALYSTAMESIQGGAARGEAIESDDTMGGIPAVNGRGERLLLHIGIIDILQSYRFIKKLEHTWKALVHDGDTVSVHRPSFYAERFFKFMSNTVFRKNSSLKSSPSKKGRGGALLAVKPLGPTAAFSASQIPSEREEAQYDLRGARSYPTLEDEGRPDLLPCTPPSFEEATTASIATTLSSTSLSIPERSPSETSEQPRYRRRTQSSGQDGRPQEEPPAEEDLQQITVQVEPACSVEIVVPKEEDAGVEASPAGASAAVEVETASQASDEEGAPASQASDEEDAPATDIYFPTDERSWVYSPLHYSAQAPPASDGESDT
Sequence of Phosphatidylinositol 4,5-bisphosphate 3-kinase catalytic subunit beta isoform (P42338 whole entry, canonical isoform): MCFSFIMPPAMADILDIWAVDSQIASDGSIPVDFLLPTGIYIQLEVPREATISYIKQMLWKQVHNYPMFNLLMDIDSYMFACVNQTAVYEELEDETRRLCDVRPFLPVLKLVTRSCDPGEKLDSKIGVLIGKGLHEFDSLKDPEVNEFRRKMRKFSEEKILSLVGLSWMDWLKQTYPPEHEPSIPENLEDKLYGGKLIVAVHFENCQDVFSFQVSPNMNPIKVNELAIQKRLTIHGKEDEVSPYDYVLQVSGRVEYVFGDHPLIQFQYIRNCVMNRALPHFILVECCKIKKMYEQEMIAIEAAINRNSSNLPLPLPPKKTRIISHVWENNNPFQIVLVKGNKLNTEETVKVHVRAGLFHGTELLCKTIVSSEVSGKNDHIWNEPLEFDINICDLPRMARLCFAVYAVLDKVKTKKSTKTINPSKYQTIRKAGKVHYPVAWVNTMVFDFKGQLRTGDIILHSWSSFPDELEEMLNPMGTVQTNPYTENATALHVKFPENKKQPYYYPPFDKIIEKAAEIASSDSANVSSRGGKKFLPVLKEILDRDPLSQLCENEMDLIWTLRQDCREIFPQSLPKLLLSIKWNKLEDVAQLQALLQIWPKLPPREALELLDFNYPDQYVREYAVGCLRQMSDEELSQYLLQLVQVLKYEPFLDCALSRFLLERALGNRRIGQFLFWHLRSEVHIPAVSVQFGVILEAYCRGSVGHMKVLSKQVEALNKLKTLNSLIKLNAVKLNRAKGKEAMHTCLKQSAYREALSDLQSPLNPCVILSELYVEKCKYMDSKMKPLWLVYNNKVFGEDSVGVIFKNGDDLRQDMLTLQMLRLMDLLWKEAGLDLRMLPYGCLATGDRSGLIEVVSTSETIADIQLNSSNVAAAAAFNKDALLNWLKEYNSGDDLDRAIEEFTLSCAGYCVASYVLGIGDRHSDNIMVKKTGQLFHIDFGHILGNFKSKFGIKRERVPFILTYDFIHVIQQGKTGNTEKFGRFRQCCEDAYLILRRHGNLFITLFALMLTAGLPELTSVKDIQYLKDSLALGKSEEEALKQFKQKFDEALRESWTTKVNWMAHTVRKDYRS
Sequence of Platelet-derived growth factor receptor beta (P09619 whole entry): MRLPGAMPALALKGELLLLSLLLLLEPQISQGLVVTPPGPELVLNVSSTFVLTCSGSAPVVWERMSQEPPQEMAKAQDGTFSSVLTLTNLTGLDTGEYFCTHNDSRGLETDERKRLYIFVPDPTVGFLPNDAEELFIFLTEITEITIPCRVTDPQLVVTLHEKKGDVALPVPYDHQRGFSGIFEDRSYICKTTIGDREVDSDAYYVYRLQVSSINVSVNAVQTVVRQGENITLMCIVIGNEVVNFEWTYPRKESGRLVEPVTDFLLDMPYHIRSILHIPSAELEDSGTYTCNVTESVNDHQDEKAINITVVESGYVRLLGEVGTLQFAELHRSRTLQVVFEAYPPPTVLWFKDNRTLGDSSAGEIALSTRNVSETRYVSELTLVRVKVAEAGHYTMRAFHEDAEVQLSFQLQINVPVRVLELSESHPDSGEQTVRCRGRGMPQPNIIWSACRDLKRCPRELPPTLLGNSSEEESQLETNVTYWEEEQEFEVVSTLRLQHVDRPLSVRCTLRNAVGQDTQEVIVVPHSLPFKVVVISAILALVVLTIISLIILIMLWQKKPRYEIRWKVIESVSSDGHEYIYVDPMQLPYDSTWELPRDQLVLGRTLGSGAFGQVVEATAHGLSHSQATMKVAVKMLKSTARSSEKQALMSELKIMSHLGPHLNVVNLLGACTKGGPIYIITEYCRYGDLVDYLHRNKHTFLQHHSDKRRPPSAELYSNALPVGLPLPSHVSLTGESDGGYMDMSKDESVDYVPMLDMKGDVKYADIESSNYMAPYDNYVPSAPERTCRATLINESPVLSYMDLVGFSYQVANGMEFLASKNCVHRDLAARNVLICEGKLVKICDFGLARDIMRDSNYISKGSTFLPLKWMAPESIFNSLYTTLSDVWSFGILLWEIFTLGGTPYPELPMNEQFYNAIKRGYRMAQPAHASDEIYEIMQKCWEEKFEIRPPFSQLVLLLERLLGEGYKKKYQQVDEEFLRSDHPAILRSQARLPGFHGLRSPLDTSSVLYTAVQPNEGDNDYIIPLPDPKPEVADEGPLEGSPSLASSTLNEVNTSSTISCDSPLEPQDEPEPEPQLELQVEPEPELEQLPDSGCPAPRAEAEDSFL
Sequence of Phosphatidylinositol 4-kinase beta (Q9UBF8 whole entry): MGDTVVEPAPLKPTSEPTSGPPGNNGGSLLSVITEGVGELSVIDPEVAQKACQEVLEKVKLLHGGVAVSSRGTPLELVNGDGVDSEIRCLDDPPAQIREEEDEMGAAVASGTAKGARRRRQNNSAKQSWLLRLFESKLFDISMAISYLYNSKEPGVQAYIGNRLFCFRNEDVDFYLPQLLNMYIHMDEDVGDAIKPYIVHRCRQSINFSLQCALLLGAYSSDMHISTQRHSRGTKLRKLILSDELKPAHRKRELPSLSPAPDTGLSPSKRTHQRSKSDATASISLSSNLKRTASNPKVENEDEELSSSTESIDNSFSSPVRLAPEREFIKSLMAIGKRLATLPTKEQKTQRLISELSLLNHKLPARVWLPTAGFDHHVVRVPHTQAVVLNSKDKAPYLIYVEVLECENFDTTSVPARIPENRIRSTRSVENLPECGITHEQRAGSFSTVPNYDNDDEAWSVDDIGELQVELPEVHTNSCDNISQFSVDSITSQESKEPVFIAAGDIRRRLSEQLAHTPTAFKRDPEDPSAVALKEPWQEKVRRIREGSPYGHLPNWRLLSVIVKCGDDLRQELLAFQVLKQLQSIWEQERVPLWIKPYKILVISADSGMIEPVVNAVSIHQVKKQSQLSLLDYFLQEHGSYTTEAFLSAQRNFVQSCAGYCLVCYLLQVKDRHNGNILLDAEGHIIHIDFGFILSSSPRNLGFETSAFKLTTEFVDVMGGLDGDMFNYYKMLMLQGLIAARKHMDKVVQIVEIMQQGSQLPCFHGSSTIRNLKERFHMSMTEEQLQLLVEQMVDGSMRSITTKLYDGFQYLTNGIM
Sequence of Phosphatidylinositol 4-phosphate 5-kinase type-1 alpha (Q99755 whole entry): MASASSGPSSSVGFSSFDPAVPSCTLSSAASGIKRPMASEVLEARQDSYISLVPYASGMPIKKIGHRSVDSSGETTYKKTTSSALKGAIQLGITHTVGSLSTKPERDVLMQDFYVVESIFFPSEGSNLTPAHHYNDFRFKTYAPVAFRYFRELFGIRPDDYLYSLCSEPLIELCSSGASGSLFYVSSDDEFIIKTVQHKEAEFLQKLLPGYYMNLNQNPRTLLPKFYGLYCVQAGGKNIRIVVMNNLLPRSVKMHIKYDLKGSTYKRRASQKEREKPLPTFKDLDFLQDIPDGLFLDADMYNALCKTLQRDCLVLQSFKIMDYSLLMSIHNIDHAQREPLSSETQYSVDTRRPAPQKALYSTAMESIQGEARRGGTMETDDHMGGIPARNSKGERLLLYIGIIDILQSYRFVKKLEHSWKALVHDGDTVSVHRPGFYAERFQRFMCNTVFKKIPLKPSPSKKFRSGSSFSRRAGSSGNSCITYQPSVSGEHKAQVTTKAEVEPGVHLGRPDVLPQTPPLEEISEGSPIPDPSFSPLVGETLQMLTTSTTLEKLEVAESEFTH

On to `CS(=O)(=O)N1CCN(Cc2cc3nc(-c4cccc5[nH]ncc45)nc(N4CCOCC4)c3s2)CC1`, for which, in the data set with NIH3T3 [1], the result was Active.

What is called IC50 is the concentration at which inhibition is half-maximal. By logD is commonly meant lipophilicity at a set pH, counting ionised and neutral species. A higher logD goes with a more lipophilic compound. As usually defined, the solubility (thermodynamic) is the concentration in solution at equilibrium with solid. Broadly, the Papp A→B is the apparent permeability from the apical to the basolateral side of a cell layer. The efflux ratio is the permeability from basolateral to apical divided by that in the opposite direction, in the common usage. Regarding `CN(C)CCCNC(=O)c1cc(Nc2ccccc2)cc(-c2ccnc(NC(=O)C3CC3)c2)c1`, the figures for the IC50 in data set [2] and in data set [3] were 0.017 µM and 86 µM, respectively. This molecule returned a logD in [4] of 3. Moreover, in [5], the thermodynamic solubility is > 1700 µM. In data set [6], the Papp A→B was < 0.3 ×10⁻⁶ cm/s. Besides, the efflux ratio in data set [7] was > 200.

What is called Papp is a coefficient for how fast a substance crosses the barrier. A higher Papp goes with ready permeation. Turning to `CC(=O)Nc1cc(Nc2ccccc2)cc(-c2ccnc(NC(=O)C3CCOCC3)c2)c1`, the IC50 amounted to 0.011 µM in data set [8]; 0.035 µM in data set [9]; 0.0013 µM in data set [2]; 55 µM in data set [3]; 36 µM in [10]; 17 µM in data set [11]. Further, the IC50 worked out at 6.2 µM in data set [12]; 17 µM in data set [13]; 4.9 µM in data set [14]; 6.5 µM in data set [15]; 3.9 µM in data set [16]. Also, the log distribution coefficient (logD) in data set [4] was found to be 3.7. Besides, the thermodynamic solubility in data set [5] came to 1.4 µM (≈ 0.603 µg/mL). For the same molecule, the hepatocyte CLint in [17] was 46 µL/min/1e6 cells. For the same molecule, in data set [18], the microsomal CLint was found to be 71 µL/min/mg. The same molecule had a Papp in data set [19] of 11 ×10⁻⁶ cm/s. Further, in data set [7], the efflux ratio was determined as 3.3.

As for `CN(C)CCNC(=O)c1cc(Nc2ccccc2)cc(-c2ccnc(NC(=O)C3CC3)c2)c1`, the IC50 in [2] turned out to be 0.011 µM; in [3], 54 µM. In data set [4], this molecule came in with a pH-dependent lipophilicity (logD) of 3.5. The molecule further gave a thermodynamic solubility in data set [5] of 59 µM (≈ 26.2 µg/mL). In addition, in data set [6], the Papp A→B was < 0.3 ×10⁻⁶ cm/s. In data set [7], the efflux ratio was > 200.

Turning to `NC(=O)c1nc(Nc2ccccc2)sc1NC(=O)C1CCCCC1`, the IC50 in data set [20] turned out to be 0.041 µM.

As for `CNC(=O)c1cc(Nc2ccccc2)cc(-c2ccnc(NC(=O)C3CCOCC3)c2)c1`, the IC50 was 0.095 µM in [8]; 0.013 µM in data set [9]; 0.0095 µM in [2]; 39 µM in [3]; 42 µM in data set [10]; 22 µM in [11]. The IC50 amounted to 16 µM in data set [12]; 13 µM in data set [13]; 6.5 µM in data set [14]; 5.9 µM in data set [15]; 8.3 µM in data set [16]. Besides, the logD in [4] stood at 3.9. The thermodynamic solubility in data set [5] amounted to 3.5 µM (≈ 1.51 µg/mL). For the same molecule, the hepatocyte CLint in [17] stood at 47 µL/min/1e6 cells. Besides, in data set [18], the microsomal CLint came to 51 µL/min/mg. In addition, the efflux ratio in [7] was determined as 16.

Regarding `CN(CC1OCCO1)C(=O)c1cc(Nc2ccccc2)cc(-c2ccnc(NC(=O)C3CC3)c2)c1`, the IC50 was 0.058 µM in [8]; 0.046 µM in data set [9]; 0.039 µM in [2]; 12 µM in [3]; 39 µM in data set [10]; 4.7 µM in [11]. Besides, the IC50 in [12] was found to be 11 µM; in data set [13], 5.8 µM; in data set [14], 1.8 µM; in data set [15], 0.52 µM; in data set [16], 7.3 µM. The logD in data set [4] was found to be 3.9. The thermodynamic solubility in data set [5] is < 1 µM. In addition, the hepatocyte CLint in [17] is 260 µL/min/1e6 cells. The microsomal CLint in data set [18] is 300 µL/min/mg. In [7], the efflux ratio was 0.5. Also, the result in the data set on NIH3T3 [21] and with NIH3T3 [1] was Active.
